Marks after values point to notes of the source that are not given here.
Experiments:
[1] = molecular target: T1, RORγt LBD pretreated with ursolic acid (Homo sapiens, UniProt P51449); test: Differential HDX-MS of RORγt pretreated with ursolic acid ± compound; format: binding
T1 construct: 5 μL of a 10 μM RORγt LBD solution (Apo or in complex with 10-excess compound)
T1 sequence (P51449 269-508 limits assumed): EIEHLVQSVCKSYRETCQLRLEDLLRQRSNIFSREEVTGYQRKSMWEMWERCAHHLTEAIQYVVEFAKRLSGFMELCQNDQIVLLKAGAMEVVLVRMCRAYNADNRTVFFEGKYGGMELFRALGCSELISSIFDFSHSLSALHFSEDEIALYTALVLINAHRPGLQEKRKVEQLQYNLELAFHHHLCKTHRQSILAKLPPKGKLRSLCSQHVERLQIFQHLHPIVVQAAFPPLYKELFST
From the text: While the mechanism of action of RORγt agonists on regulation of the immune checkpoint receptor PD-1 is unclear, a correlation between RORγt and PD-1 expression has been observed in PD-1 knockout mice Z Regardless, to gain insights into the structural mechanism for agonist activity we examined the impact of putative agonist ligands on the conformational dynamics of RORγt. To achieve this, we utilized differential hydrogen/deuterium exchange (HDX) mass spectrometry.
HDX-MS. Solution-phase amide HDX was performed with a fully automated system as described previously with minor modifications^30,31. For differential HDX experiments, 5 μL of a 10 μM RORγt LBD solution (Apo or in complex with 10-excess compound) was diluted to 25 μL with D20-containing HDX buffer, and incubated at 4° C. for; 10 s, 30s, 60s, 900s, and 3,600s, Following on-exchange, unwanted forward or back exchange is minimized and the protein is denatured by dilution to 50 μL with 0.1% TFA in 3M urea (held at 4° C., pH 2.5). Samples are then passed across an immobilized pepsin column (prepared in house) at 50 μL min−1 (0.1% TFA, 15° C.) and the resulting peptides are trapped onto a Ce trap cartridge (Thermo Fisher, Hypersil Gold). Peptides were then gradient eluted (4% CH3CN to 40% CH3CN, 0,3% formic acid over 5 minutes, 4° C.) across a 1 mm×50 mm Cia HPLC column (Hypersil Gold, Thermo Fisher) and electrosprayed directly into a high resolution orbitrap mass spectrometer (Exactive, Thermo Fisher). Percent deuterium exchange values for peptide isotopic envelopes at each time point were calculated and processed using HDX Workbench^32 and overlaid onto RORγt crystal structures using pyMOL (DeLano Scientific). HDX data is presented as an average of three individual replicates across […] time points (10s, 60s, 300s, 900s, and 3600s).

full length RORγt [2] = molecular target: T2, full length RORγt (Homo sapiens, UniProt P51449); test: Full-length RORγt co-transfection with IL17-Luc reporter in HEK293T cells; format: cell-based; conditions: 2 μM ursolic acid
T2 construct: full length RORγt was co-transfected along with a luciferase reporter; expressed in transfected cells; host or cells: HEK293T
T2 sequence (P51449 1-497 isoform P51449-2): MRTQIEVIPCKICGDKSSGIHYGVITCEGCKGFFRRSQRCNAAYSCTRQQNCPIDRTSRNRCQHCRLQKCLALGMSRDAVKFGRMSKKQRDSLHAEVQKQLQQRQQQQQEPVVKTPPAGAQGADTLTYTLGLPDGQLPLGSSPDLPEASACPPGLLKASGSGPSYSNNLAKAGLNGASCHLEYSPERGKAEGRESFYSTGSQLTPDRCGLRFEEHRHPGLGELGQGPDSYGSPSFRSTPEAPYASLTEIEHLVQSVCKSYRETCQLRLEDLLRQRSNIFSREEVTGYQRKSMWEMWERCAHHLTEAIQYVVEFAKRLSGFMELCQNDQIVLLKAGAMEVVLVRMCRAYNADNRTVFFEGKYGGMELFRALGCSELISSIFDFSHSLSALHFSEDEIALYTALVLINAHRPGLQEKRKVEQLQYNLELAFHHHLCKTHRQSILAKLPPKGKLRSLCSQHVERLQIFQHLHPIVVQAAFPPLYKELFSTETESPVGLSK
From the text: (§1) In order to determine if these compounds could modulate RORγt activity in the context of the full-length receptor, we used a co-transfection system in HEK293T cells in which full length RORγt was co-transfected along with a luciferase reporter under the control of either a basic promoter containing five copies of an ROR response element (5×RORE) or a minimal IL17 promoter.

full length RORγt [3] = molecular target: T2, full length RORγt; test: Full-length RORγt co-transfection with 5×RORE-Luc reporter in HEK293T cells; format: cell-based; conditions: 2 μM ursolic acid
From the text: as §1

[4] = system: differentiated TH17 cells; test: TH17 cell differentiation, flow cytometry; format: cell-based, murine; conditions: murine TH17 cells
Experimental: Using flow cytometery surface PD-1 expression was analyzed to determine if the decrease in gene expression of PD-1 correlates to a decrease of the protein on the cell surface, Cell: surface PD-1 expression was measured in murine and human T cell lines as well as in ex vivo differentiated murine TH17 cells. […] Next we examined the impact of compound treatment on differentiated murine TH17 cells. […] To determine if there was an increase in the active T cell population during TH17 cell differentiation, the population of CD62L^−PD1^− double negative cells was measured using flow cytometry. […] To determine if the effects of SR0987 on PD-1 expression would be observed in a human cell line, Jurkat T cells were treated with the compound.
TH17 cell differentiation. For naïve T cell differentiation, CD4^+T cells were enriched by negative selection using a magnetic-activated cell sorter kit (Millipore). Enriched CD4+ T cells activated with 5 μg/mL of plate-abound anti CD3 antibody and 1 μg/mL of anti-CD28 antibody in the presence of 20 μg/mL of anti-IFNγ, 20 μg/mL of anti-IL-4, 1 ng/mL of TGFβ, AND 10 ng/mL of IL-6. Four-five days post differentiation, all cells were stimulated for 5 hr with 5 ng/mL of phorbol-12-myristate-13-acetate (Sigma) and 500 ng/mL of ionomycin (Sigma) contained with brefeldin A solution (eBioscience).

## CC(C)=CCC[C@@H](C)[C@H]1CC[C@H]2[C@@H]3CC=C4C[C@@H](O)CC[C@]4(C)[C@H]3CC[C@]12C [desmosterol]
[1]; RORγt exposed to ursolic acid, then compound
  protection to solvent exchange in H12: not observed
[1]; UA pretreated, 268-275, charge 2, H1
  Differential HDX kinetics, peptide TEIEHLVQ: −1(4)*
[1]; UA pretreated, 268-278, charge 2, H1
  Differential HDX kinetics, peptide TEIEHLVQSVC: −2(4)*
[1]; UA pretreated, 268-280, charge 3, H1
  Differential HDX kinetics, peptide TEIEHLVQSVCKS: 2(2)*
[1]; UA pretreated, 268-286, charge 3, H1
  Differential HDX kinetics, peptide TEIEHLVQSVCKSYRETCQ: −1(3)*
[1]; UA pretreated, 268-286, charge 4, H1
  Differential HDX kinetics, peptide TEIEHLVQSVCKSYRETCQ: 0(3)*
[1]; UA pretreated, 288-292, charge 1, H2
  Differential HDX kinetics, peptide RLEDL: 10(2)*
[1]; UA pretreated, 288-293, charge 1, H2
  Differential HDX kinetics, peptide RLEDLL: 10(2)*
[1]; UA pretreated, 304-316, charge 2, H3/H4
  Differential HDX kinetics, peptide EVTGYQRKSMWEM: −6(3)*
[1]; UA pretreated, 317-329, charge 3, H4
  Differential HDX kinetics, peptide WERCAHHLTEAIQ: −1(1)*
[1]; UA pretreated, 317-330, charge 3, H4
  Differential HDX kinetics, peptide WERCAHHTEAIQY: 0(1)*
[1]; UA pretreated, 331-341, charge 2, H4/H5
  Differential HDX kinetics, peptide WEGAKRLSGF: −1(2)*
[1]; UA pretreated, 334-341, charge 2, H4/H5
  Differential HDX kinetics, peptide FAKRLSGF: 0(2)*
[1]; UA pretreated, 345-352, charge 1, H5/H6
  Differential HDX kinetics, peptide CQNDQM: 0(1)*
[1]; UA pretreated, 368-377, charge 2, B1
  Differential HDX kinetics, peptide CRAYNADNRTVF: 0(2)*
[1]; UA pretreated, 369-377, charge 2, B1
  Differential HDX kinetics, peptide YNADNRTVF: −1(3)*
[1]; UA pretreated, 378-387, charge 2, B2/H7
  Differential HDX kinetics, peptide FEGKYGGMEL: −1(3)*
[1]; UA pretreated, 388-395, charge 2, H7/H8
  Differential HDX kinetics, peptide FRALGCSEL: −1(2)*
[1]; UA pretreated, 396-410, charge 2, H8
  Differential HDX kinetics, peptide LISSIFDFSHSLSAL: 0(2)*
[1]; UA pretreated, 397-407, charge 1, H8
  Differential HDX kinetics, peptide ISSIFD: −3(2)*
[1]; UA pretreated, 397-410, charge 2, H8
  Differential HDX kinetics, peptide ISSIFDFSHSLSAL: 0(2)*
[1]; UA pretreated, 400-410, charge 2, H8
  Differential HDX kinetics, peptide IFDFSHSLSAL: 4(3)*
[1]; UA pretreated, 402-410, charge 2, H8
  Differential HDX kinetics, peptide DFSHSKSAL: 3(2)*
[1]; UA pretreated, 403-410, charge 2, H8
  Differential HDX kinetics, peptide FSHSLSAL: 0(3)*
[1]; UA pretreated, 454-478, charge 3, H11
  Differential HDX kinetics, peptide AXLPPXGKLRSLCSQ: −1(4)*
[1]; UA pretreated, 479-495, charge 2, H11
  Differential HDX kinetics, peptide HVERLQIFQHLHPIWQ: −6(3)*
[1]; UA pretreated, 496-505, charge 2, H12
  Differential HDX kinetics, peptide AAFPPLYKEL: −4(2)*
[1]; UA pretreated, 496-506, charge 2, H12
  Differential HDX kinetics, peptide AAFPPLYKELF: −3(2)*
[1]; UA pretreated, charge 2, H9
  Differential HDX kinetics, peptide HFSEDEIAL: −1(2)*
[1]; UA pretreated, charge 2, H11
  Differential HDX kinetics, peptide QIFQHLHPIWQ: −3(3)*
[1]; UA pretreated, charge 3, H1
  Differential HDX kinetics, peptide TEIEHLVQSVCKSYRETCQL: −3(4)*
[1]; UA pretreated, charge 3, H6/B1
  Differential HDX kinetics, peptide VRMCRAYNADNRTVF: −1(1)*
Full length RORγt [2]
  reporter gene expression, IL17 promoter: minimal induction of the reporter gene
Full length RORγt [3]
  reporter gene expression, 5×RORE promoter: minimal induction of the reporter gene
[4]
  IL17 production (intracellular staining of IL17A): trend towards increased IL17 production
  surface PD-1 expression: no effect
